Source: a melting point compilation (Tetko et al.; mined from patent text by program, amines drawn as free bases though some values may be those of a salt)

**Q.** Which melting point does the source give for `C(=C\c1nc(COc2cccc(CCCn3cncn3)c2)co1)/c1ccccc1` here?
**A.** 59 to 60 °C

**Q.** With `O=C1Cc2cccc(Oc3cccc4ccccc34)c2N1` as the compound, how does the melting point read?
**A.** 158 to 160 °C

**Q.** With `N#CC1=C(c2ccccc2)Nc2n[nH]cc2C1c1cccc2ccccc12` (stereo unspecified) as the compound, how does the melting point read?
**A.** 174 °C

**Q.** Which melting point does the source give for `O=C(O)C(=CNc1ccc(OCc2ccccc2)c(OCc2ccccc2)c1)C(=O)O` here?
**A.** 73 to 76 °C

**Q.** Which melting point does the source give for `CN(CCCl)S(=O)(=O)c1ccc2ccccc2c1` here?
**A.** 101 °C

**Q.** With `CC(C)(CCc1noc(=O)[nH]1)c1ccc(C(=O)Nc2cn3cc(-n4ccnc4)ccc3n2)cc1` as the compound, how does the melting point read?
**A.** 283 to 284 °C

**Q.** For `O=C(O)C(=O)Nc1coc2ccccc2c1=O`, which melting point is on record?
**A.** 195 to 197 °C

**Q.** For `Nc1ccc(C(=O)N2Cc3cccn3Cc3ccccc32)c(Cl)c1`, which melting point is on record?
**A.** 210 to 212 °C

**Q.** With `COCOc1ccc2sc(C=O)cc2c1` as the compound, how does the melting point read?
**A.** 81 to 82 °C

**Q.** Which melting point does the source give for `CCOC(=O)/C=C/c1cn(-c2ccc(C(F)(F)F)cc2)nc1C(C)C` here?
**A.** 118 to 119 °C

**Q.** With `COc1ccc2c(c1)C(C#Cc1ccccc1)(C(F)(F)F)NC(=O)N2` (racemic) as the compound, how does the melting point read?
**A.** 206 to 208 °C

**Q.** For `CC(C)NCC(O)COc1ccc(C2=NNC(=O)CC2)cc1` (stereo unspecified), which melting point is on record?
**A.** 108 to 115 °C

**Q.** Which melting point does the source give for `COc1ccccc1-c1cc(NC(=O)C2CCNCC2)ncn1` here?
**A.** 279 to 280 °C

**Q.** Which melting point does the source give for `CCOC(=O)c1cn(Cc2ccc(Oc3ccccc3)cc2)nc1OCc1ccc(OCc2nc(-c3ccco3)oc2C)c(OC)c1` here?
**A.** 98 to 99 °C

**Q.** For `CC(=O)Nc1ccc(C#Cc2ccc(N3CC4CCC(C3)N4C)nn2)cc1`, which melting point is on record?
**A.** 292 °C

**Q.** With `CN1C(C)(C)CC(C(O)CNc2nc(Cl)nc(NCC(O)C3CC(C)(C)N(C)C(C)(C)C3)n2)CC1(C)C` (stereo unspecified) as the compound, how does the melting point read?
**A.** 166 to 176 °C

**Q.** Which melting point does the source give for `Cn1c(C(F)(F)F)cc(=O)n(-c2cc(Oc3ccccc3OCC(=O)OC(C)(C)C)c(Cl)cc2F)c1=O` here?
**A.** 55.6 °C

**Q.** For `O=c1ccn(-c2cccc(C(F)(F)F)c2)nc1-c1ncnn1-c1ccccc1`, which melting point is on record?
**A.** 167 to 168 °C

**Q.** Which melting point does the source give for `CS(=O)(=O)c1ccc(C(=O)c2cnoc2C2CC2)c2c1OC(F)(F)O2` here?
**A.** 164 to 165 °C

**Q.** For `CCOC(=O)C1=C(COCCOCCN)NC(C)=C(C(=O)OC)C1c1cccc(Cl)c1Cl` (single isomer, unassigned; (-)), which melting point is on record?
**A.** 69 to 71 °C

**Q.** With `Cc1cc2c(cc1Cl)NC(NC(C)C)=NS2(=O)=O` as the compound, how does the melting point read?
**A.** 120 to 122 °C

**Q.** Which melting point does the source give for `CCCn1c(=O)cc(N)n(Cc2ccccc2)c1=O` here?
**A.** 189 to 192 °C

**Q.** For `Cc1ccc(-c2c(C(=O)Nc3nccs3)nc(-c3cccc4ccccc34)n2C)cc1`, which melting point is on record?
**A.** 251 to 252 °C

**Q.** With `COc1ccc2c(C(=O)N(C=O)CC(=O)O)cccc2c1C(F)(F)F` as the compound, how does the melting point read?
**A.** 142 to 144 °C

**Q.** With `CCC1(c2cccs2)OCC(=O)Nc2ccc(-c3csc(C#N)c3)cc21` (stereo unspecified) as the compound, how does the melting point read?
**A.** 202 to 204 °C

**Q.** For `COc1cc(N)c(Cl)cc1C(=O)NCC1CCN(CCCCCC(=O)c2ccc(Cl)c(Cl)c2)CC1`, which melting point is on record?
**A.** 203 to 205 °C

**Q.** With `Cc1nc(N2CCC(Cc3ccc(OC(F)F)cc3)C2=O)sc1C(=O)NCc1ccc(F)cc1` (stereo unspecified) as the compound, how does the melting point read?
**A.** 143 to 145 °C

**Q.** With `OCc1cccc(-c2cnc3cnc(-c4ccc(O)cc4)nc3c2)c1` as the compound, how does the melting point read?
**A.** 232 °C

**Q.** Which melting point does the source give for `COc1ccc(CNC(=O)c2c(-c3ccncc3)c(-c3ccc(F)cc3)nn2C)cc1` here?
**A.** 162 to 165 °C

**Q.** For `CC1=C(C#N)C(c2cccc([N+](=O)[O-])c2)n2ccnc2N1` (stereo unspecified), which melting point is on record?
**A.** 278 to 280 °C

**Q.** Which melting point does the source give for `FC(F)(F)Oc1ccc(-c2ccc3c(ccn3Cc3ccccc3)c2)cc1` here?
**A.** 62 to 63 °C

**Q.** With `CCOC(=O)C1=C(C)N(C(=O)c2ccccc2)C(C)=C(C(=O)OCC)C1c1cccc([N+](=O)[O-])c1` as the compound, how does the melting point read?
**A.** 98 to 101 °C

**Q.** With `N#Cc1nn(-c2c(Cl)cc(C(F)(F)F)cc2Cl)c(N)c1-c1ccc(F)cc1` as the compound, how does the melting point read?
**A.** 222 to 223 °C

**Q.** For `COc1c(Cl)ccc(-c2cc(N)c(Cl)c(C(=O)NOCC3CC3)n2)c1F`, which melting point is on record?
**A.** 164 to 166 °C

**Q.** With `OCC1OC(n2cc(Cc3ccc(C4CC4)cc3)c3c(F)cccc32)C(O)C(O)C1O` (stereo unspecified) as the compound, how does the melting point read?
**A.** 110 to 112 °C

**Q.** With `N#Cc1ccc(N2CCC(CCCO)CC2)c2ccccc12` as the compound, how does the melting point read?
**A.** 114 to 115 °C

**Q.** With `Cn1cnnc1C(O)(c1ccc(I)cc1)c1ccc2c(c1)C(c1cccc(Cl)c1)Nc1nnnn1-2` (stereo unspecified) as the compound, how does the melting point read?
**A.** 201 °C

**Q.** With `O=C(O)c1ccc(-c2csc(-c3ccc(C(F)(F)F)cc3)n2)cc1` as the compound, how does the melting point read?
**A.** 275 to 276 °C

**Q.** Which melting point does the source give for `CCCCC1(CCCC)CS(=O)(=O)c2ccc(N(C)C)cc2[C@@H](c2ccc(OCCCCCSc3nnnn3CC(=O)O)cc2)[C@H]1O` here?
**A.** 119 to 123 °C

**Q.** With `O=C(O)CCCCCNC(=O)c1cccc2c(=O)c3ccccc3[nH]c12` as the compound, how does the melting point read?
**A.** 218 °C

**Q.** Which melting point does the source give for `CCc1cn(C2OC(CNC(=O)C(C)Oc3cc(OC)c(Br)cc3Br)C(O)C2F)c(=O)[nH]c1=O` (stereo unspecified) here?
**A.** 223 to 224 °C

**Q.** With `CCCCCCCCCCCCCCCCOCC(O)CN1CCC(c2ccccc2)CC1` (stereo unspecified) as the compound, how does the melting point read?
**A.** 64 to 65 °C

**Q.** With `C#CCOc1cc(OCC=C)ccc1-c1nc2ncccc2[nH]1` as the compound, how does the melting point read?
**A.** 210 °C

**Q.** For `Cc1nc(-n2c(C)ccc2C)nc(C)c1Br`, which melting point is on record?
**A.** 64 to 65 °C

**Q.** With `CCNC(=O)c1nc(-c2ccc(C)c(C)c2)n(-c2cc(Cl)ccc2C)c1-c1cccc(Cl)c1` as the compound, how does the melting point read?
**A.** 141 to 143 °C

**Q.** For `CCN(CC)Cc1cc(NC(=O)Nc2ccc(Oc3cc(N)ncn3)cc2)cc(C(F)(F)F)c1`, which melting point is on record?
**A.** 63 to 65 °C

**Q.** With `CCOC(=O)c1cn(-c2cnccn2)cn1` as the compound, how does the melting point read?
**A.** 128 to 129 °C

**Q.** Which melting point does the source give for `Brc1ccc(-c2nc(COc3ccc(CCCn4ccnc4)cc3)co2)o1` here?
**A.** 115 to 116 °C

**Q.** Which melting point does the source give for `CCOC(=O)C(=O)CC(=O)c1ccc2c(c1)c(=O)c(CCC(=O)O)cn2Cc1ccc(F)cc1` here?
**A.** 177 to 180 °C

**Q.** With `CC(C)Oc1ccc(-c2nn([C@@H](C)c3oc4ccc(F)cc4c(=O)c3-c3cccc(F)c3)c3ncnc(N)c23)cc1F` as the compound, how does the melting point read?
**A.** 139 to 142 °C

**Q.** Which melting point does the source give for `C#Cc1cc(Nc2ncnc3cnc(NC(=O)CP(=O)(OCC)OCC)cc23)ccc1F` here?
**A.** 103 to 106 °C

**Q.** With `Cc1ccc(NC(=O)NCc2ccc3c(c2)CN(C2CCC(=O)N(COC(=O)C4CCN(C(=O)OC(C)(C)C)CC4)C2=O)C3=O)cc1Cl` (stereo unspecified) as the compound, how does the melting point read?
**A.** 157 to 159 °C

**Q.** Which melting point does the source give for `NS(=O)(=O)c1ccc(-c2c(-c3ccccc3)noc2Cl)cc1` here?
**A.** 186 to 187 °C

**Q.** For `O=c1[nH]c2ccc(-c3cccc([N+](=O)[O-])c3)cc2n1Cc1ccccc1`, which melting point is on record?
**A.** 202 to 203 °C

**Q.** For `Cc1nnc2n1-c1ccc(Br)cc1C(c1ccccc1F)=NC2`, which melting point is on record?
**A.** 213 to 214 °C

**Q.** With `CNC(=O)NCCCCC1CCSS1` (stereo unspecified) as the compound, how does the melting point read?
**A.** 89 to 90 °C

**Q.** For `O=C(O)COc1cc2c(c(Cl)c1Cl)C(=NO)C1(CCCC1)C2`, which melting point is on record?
**A.** 228 °C

**Q.** For `Nc1nc2ccccc2c2c1nc(N)n2Cc1ccccc1`, which melting point is on record?
**A.** 254 to 256 °C

**Q.** Which melting point does the source give for `Cc1cc(N)nc(CCCCNC(=O)Cc2ccc3c(c2)OCO3)c1` here?
**A.** 56 to 58 °C

**Q.** With `CC(=O)Oc1ccccc1C(=O)ON(C(N)=O)C(C)c1cc2ccccc2s1` (stereo unspecified) as the compound, how does the melting point read?
**A.** 141 to 143 °C

**Q.** Which melting point does the source give for `CCOP(=O)(OCC)SCc1ccc(-c2nc(SC)c3cc(Br)ccc3n2)cc1` here?
**A.** 126 to 127 °C

**Q.** Which melting point does the source give for `CCCCCCCCCCC=C1SC(=S)N(CC(=O)O)C1=O` here?
**A.** 61 to 63 °C

**Q.** Which melting point does the source give for `CCOC(=O)c1ncsc1-c1cc(F)cc(F)c1` here?
**A.** 112 to 113 °C

**Q.** With `O=C(NCc1cccs1)c1cc2ccnc(N(Cc3ccccc3)Cc3ccccc3)c2[nH]1` as the compound, how does the melting point read?
**A.** 152 to 154 °C

**Q.** With `CCN(CC)CC1(C)Cc2c(C)c(N3CCN(c4ccc(OC)cc4)CC3)c(C)c(C)c2O1` (stereo unspecified) as the compound, how does the melting point read?
**A.** 103 to 106 °C

**Q.** Which melting point does the source give for `Cc1cccc2c3c([nH]c12)CCC(N1CCCC1)C3` (stereo unspecified) here?
**A.** 159 to 163 °C
